The assay deals with human GPBAR1 receptor (Homo sapiens (Human), UniProt Q8TDU6). Briefly: functional cAMP assay in CHO-dhfr(minus) cells expressing human GPBAR1 receptors. Format: cell-based. To be noted: CHO-dhfr(minus) cells expressing human GPBAR1, 30 min at 30° C. The essentials: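 Functional cAMP responses in a human GPBAR1-transfected CHO-dhfr- clone, picked using lithocholic acid as agonist, gave the EC50 values. Parallel testing in untransfected CHO cells served as a specificity control.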
Sequence of human GPBAR1 receptor (Q8TDU6 whole entry): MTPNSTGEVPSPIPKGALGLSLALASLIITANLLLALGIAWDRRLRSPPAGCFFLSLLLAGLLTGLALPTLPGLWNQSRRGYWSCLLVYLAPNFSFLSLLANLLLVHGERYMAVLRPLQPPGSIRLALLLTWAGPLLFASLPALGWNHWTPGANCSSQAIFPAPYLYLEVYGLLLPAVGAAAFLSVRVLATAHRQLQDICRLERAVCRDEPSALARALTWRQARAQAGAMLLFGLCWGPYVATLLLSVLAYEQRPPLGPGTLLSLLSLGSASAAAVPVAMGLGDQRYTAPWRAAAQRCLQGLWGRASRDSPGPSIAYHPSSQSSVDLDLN
On the technique in general: Cyclic AMP is a second messenger, typically raised through Gs and lowered through Gi signalling.

Molecules are shown by their SMILES.

As usually defined, the EC50 is the midpoint of the concentration-response curve.

In the case of `CS(=O)(=O)CCN(C(=O)c1cc(C(F)(F)F)nc(C(F)(F)F)c1)c1cnccc1-c1ccccc1F` [Example 159, N-[4-(2-Fluoro-phenyl)-pyridin-3-yl]-N-(2-methanesulfonyl-ethyl)-2,6-bis-trifluoromethyl-isonicotinamide], the midpoint of the response, the EC50, lay at 326 nM. In the case of `COc1ncccc1-c1ccncc1N(CCS(C)(=O)=O)C(=O)c1cc(C(F)(F)F)nc(C(F)(F)F)c1` [Example 160, N-(2-Methanesulfonyl-ethyl)-N-(2-methoxy-[3,4′]bipyridinyl-3′-yl)-2,6-bis-trifluoromethyl-isonicotinamide], the EC50 came out at 281 nM.

For `Cc1ccccc1-c1ccncc1N(CC#N)C(=O)c1cc(C(F)(F)F)cc(C(F)(F)F)c1` [Example 161, N-Cyanomethyl-N-(4-o-tolyl-pyridin-3-yl)-3,5-bis-trifluoromethyl-benzamide], the EC50 came out at 29 nM. The figure for `COc1cc(F)ccc1-c1ccncc1N(CCS(C)(=O)=O)C(=O)c1cc(C(F)(F)F)nc(C(F)(F)F)c1` [Example 162, N-[4-(4-Fluoro-2-methoxy-phenyl)-pyridin-3-yl]-N-(2-methanesulfonyl-ethyl)-2,6-bis-trifluoromethyl-isonicotinamide] is 101 nM; for `Cc1ccccc1-c1ccncc1N(CCS(C)(=O)=O)C(=O)c1cc(C(F)(F)F)nc(C(F)(F)F)c1` [Example 163, N-(2-Methanesulfonyl-ethyl)-N-(4-o-tolyl-pyridin-3-yl)-2,6-bis-trifluoromethyl-isonicotinamide] it is 99 nM.

In the case of `Cc1ccccc1-c1ccncc1N(C)C(=O)c1cc(N)cc(C(F)(F)F)c1` [Example 164, 3-amino-N-methyl-N-(4-o-tolylpyridin-3-yl)-5-(trifluoromethyl)benzamide], the EC50 came to 1700 nM. The result for `Cc1ccccc1-c1ccncc1N(CCC#N)C(=O)c1cc(C(F)(F)F)cc(C(F)(F)F)c1` [Example 165, N-(2-Cyano-ethyl)-N-(4-o-tolyl-pyridin-3-yl)-3,5-bis-trifluoromethyl-benzamide] reads 153 nM; that for `CN(C(=O)c1cc(C(F)(F)F)cc(C(F)(F)F)c1)c1cnccc1C1=CCOCC1` [Example 166, N-[4-(3,6-Dihydro-2H-pyran-4-yl)-pyridin-3-yl]-N-methyl-3,5-bis-trifluoromethyl-benzamide], 1780 nM. As for `COc1cccc(-c2ccncc2N(C)C(=O)c2cc(C(F)(F)F)cc(C(F)(F)F)c2)c1OC` [Example 167, N-[4-(2,3-Dimethoxy-phenyl)-pyridin-3-yl]-N-methyl-3,5-bis-trifluoromethyl-benzamide], the EC50 was determined as 2720 nM. The result for `CCc1ccccc1-c1ccncc1N(C)C(=O)c1cc(C(F)(F)F)cc(C(F)(F)F)c1` [Example 168, N-[4-(2-Ethyl-phenyl)-pyridin-3-yl]-N-methyl-3,5-bis-trifluoromethyl-benzamide] reads 41 nM.

Turning to `COc1cc(F)ccc1-c1ccncc1N(C)C(=O)c1cc(Cl)nc(C(F)(F)F)c1` [Example 169, 2-Chloro-N-[4-(4-fluoro-2-methoxy-phenyl)-pyridin-3-yl]-N-methyl-6-trifluoromethyl-isonicotinamide], the EC50 is 26 nM. In the case of `COc1ncccc1-c1ccncc1N(CC(F)(F)F)C(=O)c1cc(C(F)(F)F)cc(S(=O)(=O)N(C)C)c1` [Example 170, 3-Dimethylsulfamoyl-N-(2-methoxy-[3,4′]bipyridinyl-3′-yl)-N-(2,2,2-trifluoro-ethyl)-5-trifluoromethyl-benzamide], the EC50 stood at 118 nM.

Turning to `Cc1ccccc1-c1ccncc1N(C)C(=O)c1cc(Cl)nc(C(F)(F)F)c1` [Example 171, 2-Chloro-N-methyl-N-(4-o-tolyl-pyridin-3-yl)-6-trifluoromethyl-isonicotinamide], the midpoint of the response, the EC50, lay at 56 nM. Turning to `COC(=O)CN(C(=O)c1cc(C(F)(F)F)cc(S(C)(=O)=O)c1)c1cnccc1-c1cc(F)c(F)cc1OC` [Example 172, [[4-(4,5-Difluoro-2-methoxy-phenyl)-pyridin-3-yl]-(3-methanesulfonyl-5-trifluoromethyl-benzoyl)-amino]-acetic acid methyl ester], it took 632 nM to reach a half-maximal effect (EC50).

For the molecule `COC(=O)CN(C(=O)c1cc(C(F)(F)F)nc(C(F)(F)F)c1)c1cnccc1-c1cc(F)c(F)cc1OC` [Example 173, {(2,6-Bis-trifluoromethyl-pyridine-4-carbonyl)-[4-(4,5-difluoro-2-methoxy-phenyl)-pyridin-3-yl]-amino}-acetic acid methyl ester], the EC50 came out at 53 nM. The molecule `COc1cc(F)c(F)cc1-c1ccncc1N(CC(N)=O)C(=O)c1cc(C(F)(F)F)nc(C(F)(F)F)c1` [Example 174, N-(2-Amino-2-oxoethyl)-N-(4-(4,5-difluoro-2-methoxyphenyl)pyridin-3-yl)-2,6-bis(trifluoromethyl)isonicotinamide] displayed an EC50 of 54 nM. The result for `CN(C(=O)c1cc(C(F)(F)F)cc(C(F)(F)F)c1)c1cnccc1-c1ccccc1CC#N` [Example 175, N-[4-(2-Cyanomethyl-phenyl)-pyridin-3-yl]-N-methyl-3,5-bis-trifluoromethyl-benzamide] reads 571 nM; that for `COC(=O)CN(C(=O)c1cc(C(F)(F)F)nc(C(F)(F)F)c1)c1cnccc1-c1ccc(F)cc1OC` [Example 176, {(2,6-Bis-trifluoromethyl-pyridine-4-carbonyl)-[4-(4-fluoro-2-methoxy-phenyl)-pyridin-3-yl]-amino}-acetic acid methyl ester], 14 nM; that for `COc1cc(F)ccc1-c1ccncc1N(CC(N)=O)C(=O)c1cc(C(F)(F)F)nc(C(F)(F)F)c1` [Example 177, N-Carbamoylmethyl-N-[4-(4-fluoro-2-methoxy-phenyl)-pyridin-3-yl]-2,6-bis-trifluoromethyl-isonicotinamide], 36 nM. In turn, `COC(=O)CN(C(=O)c1cc(C(F)(F)F)cc(S(=O)(=O)N(C)C)c1)c1cnccc1-c1cccnc1OC` [Example 178, Methyl 2-(3-(N,N-dimethylsulfamoyl)-N-(2-methoxy-3,4′-bipyridin-3′-yl)-5-(trifluoromethyl)benzamido)acetate] returned a concentration giving a half-maximal response (EC50) of 49 nM. The figure for `COC(=O)CN(C(=O)c1cc(C(F)(F)F)cc(S(C)(=O)=O)c1)c1cnccc1-c1cccnc1OC` [Example 180, [(3-Methanesulfonyl-5-trifluoromethyl-benzoyl)-(2-methoxy-[3,4′]bipyridinyl-3′-yl)-amino]-acetic acid methyl ester] is 197 nM; for `COc1ncccc1-c1ccncc1N(CC(N)=O)C(=O)c1cc(C(F)(F)F)cc(S(C)(=O)=O)c1` [Example 181, N-Carbamoylmethyl-3-methanesulfonyl-N-(2-methoxy-[3,4′]bipyridinyl-3′-yl)-5-trifluoromethyl-benzamide] it is 2950 nM; for `COC(=O)CN(C(=O)c1cc(C(F)(F)F)nc(C(F)(F)F)c1)c1cnccc1-c1cccnc1OC` [Example 182, Methyl 2-(N-(2-methoxy-3,4′-bipyridin-3′-yl)-2,6-bis(trifluoromethyl)isonicotinamido)acetate] it is 27 nM. Molecule `COc1ncccc1-c1ccncc1N(CC(N)=O)C(=O)c1cc(C(F)(F)F)nc(C(F)(F)F)c1` [Example 183, N-(2-Amino-2-oxoethyl)-N-(2-methoxy-3,4′-bipyridin-3′-yl)-2,6-bis(trifluoromethyl)-isonicotinamide] displayed an EC50 of 206 nM.

These data come from patent publication US10385022B2, “3-amino-pyridines as GPBAR1 agonists” (HOFFMANN-LA ROCHE INC., priority 2011, dated 2019).
